Reference: patent US11129845B2, “Compositions and methods for the delivery of nucleic acids” (CASE WESTERN RESERVE UNIVERSITY, priority 2014, dated 2021)

Assays:
[1] = tested on: MDA-MB-231 cells; experiment: MTT cytotoxicity with PTX after siRNA nanoparticles, MDA-MB-231; assay type: cell-based; conditions: Homo sapiens; MDA-MB-231, 0.5 ng/mL PTX 48 hours; combination: nanoparticles 48 hours first; read-out: cell viability (MTT)
Method: (§1) Cytotoxicity assays were performed in a 96-well plate as described previously, by seeding 2,000 MDA-MB-231 or MDA-MB-231.DR cells/well. […] Next, the wells were washed twice with PBS and incubation with various concentrations of PTX in fresh media. After 2 additional days, the MTT reagent (Invitrogen) was added to the cells for 4 hours followed by the addition of SDS-HCl and further incubation for 4 hours. The absorbance of each well was measured at 570 nm using a SpectraMax spectrophotometer (Molecular Devices). Cellular viability was calculated as the average of the set of triplicates for each PTX concentration and was normalized relative to the no treatment control. Drug resistance was confirmed with an MTT assay to determine the IC50 of paclitaxel. The IC50 was defined as the dose of drug required to inhibit cell viability by 50%.

[2] = tested on: MDA-MB-231.DR cells; experiment: MTT cytotoxicity with PTX after siRNA nanoparticles, MDA-MB-231.DR; assay type: cell-based; conditions: Homo sapiens, 0.5 ng/mL PTX 48 hours, combination: nanoparticles 48 hours first, read-out: cell viability (MTT)
Method: as §1

[3] = Nanoparticle diameter and polydispersity by dynamic light scattering (Malvern Zetasizer); assay type: physicochemical; conditions: for Nanoparticle diameter as measured by dynamic light scattering: siRNA-lipid complexes
Method: (§2) The cationic lipid carriers are dissolved in ethanol at a stock concentration of 2.5 mM, while all siRNA is reconstituted in nuclease-free water at a 0.25 μg/μL (18.8 μM) concentration. Nanoparticles are formulated by mixing the carriers with siRNA for a period of 30 min in RNase-free phosphate buffer saline (PBS) at pre-specified N/P ratios (N=number of protonable amines in lipid, P=number of phosphate groups in the siRNA). In preparing the lipoplexes, proper dilutions were made such that the volume ratio of ethanol:water was kept constant at 1:20. Minimizing the amount of ethanol is important because it is effective in dissolving lipids, thus inhibiting particle formation. The diameters (as determined by dynamic light scattering) and zeta potentials of all nanoparticles were analyzed using a Malvern Zetasizer instrument at pH=7.4. siRNA encapsulation efficiency was calculated using a RiboGreen fluorescence-based assay from Invitrogen, designed specifically for detection of free RNA at […] wavelengths of 480 and 520 nm, respectively. Nanoparticles were created with all carriers in the library so that final siRNA concentrations were 1.6 μg/mL. A linear standard curve was utilized to calculate the encapsulation efficiencies from signal intensities measured by a SpectraMax microplate reader (Molecular Devices).

[4] = Zeta-potential of siRNA-lipid complexes (Malvern Zetasizer); assay type: physicochemical
Method: as §2

[5] = tested on: Red blood cells (RBCs); experiment: pH-sensitive hemolytic activity of carrier library; assay type: cell-based, rat; conditions: all N/P ratios (5, 10, 15) and pHs (7.4, 6.5, 5.4) tested
Method: Hemolytic activity of each carrier was determined to verify the pH-sensitive membrane disruption capabilities of each carrier in the delivery system. Red blood cells (RBCs) extracted from rats were purchased from Innovative Research Inc. (Novi, Mich.) and diluted 1:50 in PBS solutions of pHs=5.4, 6.5, or 7.4. A total of 100 μL of nanoparticles were created at N/P ratios of 5, 10, 15 and then incubated with 100 μL of diluted RBCs at 37° C. for 2 h. Nanoparticles were formulated so that the final amine concentration for all the samples, after mixing with the RBCs, was 150 μM. Multiple pHs were tested to predict if the nanoparticles could disrupt membranes of the endosomal-lysosomal compartments (pH=5-6), without affecting the integrity of the outer cell membrane prior to endocytosis (pH=7.4). The absorbance of each test sample was measured on a SpectraMax spectrophotometer at a wavelength of 540 nm in order to determine the amount of hemoglobin released from the RBCs, due to membrane destabilization, relative to that achieved by a positive control treatment of 1% (v/v) Triton-X100 surfactant during the 2 hour incubation period.

[6] = tested on: HT29 colon carcinoma cells; experiment: Cellular uptake of Alexa Fluor 488-siRNA via flow cytometry; assay type: cell-based, human; conditions: HT29, N/P=18, 4 h, 100 nM Alexa Fluor 488-siRNA
Method: Flow cytometry was used to investigate the cellular uptake of our delivery system in HT29 colon carcinoma cells. All carriers in the library were formulated into nanoparticles by condensing Alexa Fluor 488-labeled siRNA at the optimal N/P ratio determined by the above luciferase knockdown studies. Approximately 50,000 cancer cells were seeded in 6-well plates and allowed to grow until 30-50% confluence was reached. The cancer cells were transfected with a 100 nM siRNA dose in serum-free media. After 4 h, the transfection media were aspirated and the cells were washed twice with PBS. The cells were then trypsinized, collected, and fixed with 2% paraformaldehyde in PBS, prior to flow cytometric analysis.

Row | Structure (SMILES) | viability at 0.0005 µg/mL [1] | viability at 0.0005 µg/mL [2] | Polydispersity of siRNA-lipid complexes ([3]; N/P = 2) | Polydispersity of siRNA-lipid complexes ([3]; N/P = 5) | Polydispersity of siRNA-lipid complexes ([3]; N/P = 8) | Polydispersity of siRNA-lipid complexes ([3]; N/P = 10) | Polydispersity of siRNA-lipid complexes ([3]; N/P = 15) | Nanoparticle diameter as measured by dynamic light scattering ([3]; N/P = 2) | Nanoparticle diameter as measured by dynamic light scattering ([3]; N/P = 5) | Nanoparticle diameter as measured by dynamic light scattering ([3]; N/P = 8) | Nanoparticle diameter as measured by dynamic light scattering ([3]; N/P = 10) | Nanoparticle diameter as measured by dynamic light scattering ([3]; N/P = 15) | Zeta-potential of siRNA-lipid complexes ([4]; pH = 7.4, N/P = 2) | Zeta-potential of siRNA-lipid complexes ([4]; pH = 7.4, N/P = 5) | Zeta-potential of siRNA-lipid complexes ([4]; pH = 7.4, N/P = 8) | Zeta-potential of siRNA-lipid complexes ([4]; pH = 7.4, N/P = 10) | Zeta-potential of siRNA-lipid complexes ([4]; pH = 7.4, N/P = 15) | hemolytic activity relative to Triton X-100 [5] | cellular uptake, mean fluorescence intensity (MFI) [6]
1 | CC(=O)O[C@H]1C(=O)[C@@]2(C)[C@H]([C@H](OC(=O)c3ccccc3)[C@]3(O)C[C@H](OC(=O)[C@H](O)[C@@H](NC(=O)c4ccccc4)c4ccccc4)C(C)=C1C3(C)C)[C@]1(OC(C)=O)CO[C@@H]1C[C@@H]2O [PTX, paclitaxel] | 44.6 ± 6.6% | 80.7 ± 2.9% | – | – | – | – | – | – | – | – | – | – | – | – | – | – | – | – | –
2 | CCCCC/C=C\C/C=C\CCCCCCCC(=O)NC(CS)C(=O)NCCNC(=O)CCN(CCCNCCCCNCCCN)CCC(=O)NCCNC(=O)C(CS)NC(=O)CCCCCCC/C=C\C/C=C\CCCCC (centres unmarked) [SCLn] | – | – | 0.298 | 0.233 | 0.140 | 0.184 | 0.180 | 482 ± 40 nm | 185 ± 22 nm | 51 ± 14 nm | 50 ± 12 nm | 48 ± 12 nm | −28.35 ± 3.61 mV | 26.89 ± 1.85 mV | 26.03 ± 2.25 mV | 28.59 ± 2.25 mV | 17.15 ± 2.99 mV | greatest hemolytic activity | 4066±185
3 | CCCCCCCC/C=C\CCCCCCCC(=O)NC(CS)C(=O)NCCNC(=O)CCN(CCCNCCCCNCCCN)CCC(=O)NCCNC(=O)C(CS)NC(=O)CCCCCCC/C=C\CCCCCCCC (centres unmarked) [SCO] | – | – | 0.339 | 0.236 | 0.19 | 0.158 | 0.176 | 407 ± 35 nm | 138 ± 28 nm | 63 ± 12 nm | 65 ± 11 nm | 53 ± 9 nm | −29.49 ± 1.33 mV | 26.60 ± 2.76 mV | 23.16 ± 1.88 mV | 23.29 ± 3.11 mV | 25.16 ± 3.75 mV | greatest hemolytic activity | –
